According to article PMC7587356, “High-Throughput Screening for Inhibitors of the SARS-CoV-2 Protease Using a FRET-Biosensor” (Molecules, 2020):
Counter-ions that a name gives are not always drawn. Like-named read-outs stand apart in the source and are kept apart here.

Biological target: SARS-CoV-2 3CLpro (Severe acute respiratory syndrome coronavirus 2, UniProt P0DTD1)
Test: biochemical
Assay type: biochemical
Design: Replicate_1 / Replicate_2 / mean / mean (LOPAC_screen_w_protease): unit not given here
Settings: for inhibition at 5 µM: 4 h
[1] = sheet LOPAC_screen_w_protease, primary screen with protease, 5 µM, mean of two replicates, read-out: mean
[2] = sheet LOPAC_screen_w_protease, primary screen with protease, 5 µM, replicate 1, read-out: Replicate_1
[3] = sheet LOPAC_screen_w_protease, primary screen with protease, 5 µM, replicate 2, read-out: Replicate_2
[4] = sheet LOPAC_screen_w_protease, LOPAC1280 primary screen at 5 µM, with protease, replicate 1, read-out: Replicate_1
[5] = sheet LOPAC_screen_w_protease, LOPAC1280 primary screen at 5 µM, with protease, replicate 2, read-out: Replicate_2
[6] = LOPAC1280 primary screen with protease, 5 µM compound, replicate 1, read-out: Replicate_1 (LOPAC_screen_w_protease)
[7] = LOPAC1280 primary screen with protease, 5 µM compound, replicate 2, read-out: Replicate_2 (LOPAC_screen_w_protease)
[8] = LOPAC1280 primary screen with protease, 5 µM compound, mean of two replicates
[9] = LOPAC1280 primary screen with protease, 5 µM compound, replicate 1
[10] = LOPAC1280 primary screen with protease, 5 µM compound, replicate 2
[11] = sheet LOPAC_screen_w_protease, primary screen with protease, mean of two replicates, read-out: mean
[12] = sheet LOPAC_screen_w_protease, primary screen with protease, replicate 1, read-out: Replicate_1
[13] = sheet LOPAC_screen_w_protease, primary screen with protease, replicate 2, read-out: Replicate_2
[14] = sheet LOPAC_screen_w_protease, primary screen with protease, 5 µM, mean of two replicates
[15] = sheet LOPAC_screen_w_protease, primary screen with protease, 5 µM, replicate 1
[16] = sheet LOPAC_screen_w_protease, primary screen with protease, 5 µM, replicate 2

## CC[C@H](CO)Nc1nc(NCc2ccccc2)c2ncn(C(C)C)c2n1 [Roscovitine]
  mean (LOPAC_screen_w_protease): 1.3343
read-out: Replicate_1 (LOPAC_screen_w_protease)
  inhibition at 5 µM: 3.12%
read-out: Replicate_2 (LOPAC_screen_w_protease)
  inhibition at 5 µM: -0.448%

## CCCCCCCCCCCCC/C=C/[C@@H](O)[C@@H](N)CO [Sphingosine]
[1]
  inhibition at 5 µM: -0.887%
[2]
  inhibition at 5 µM: -1.81%
[3]
  inhibition at 5 µM: 0.0317%

## CC(C)NCC(O)COc1cccc2[nH]ccc12 (stereo not drawn) [Pindolol]
Sheet LOPAC_screen_w_protease, LOPAC1280 primary screen at 5 µM, with protease, mean of the two replicates, read-out: mean
  inhibition at 5 µM: 0.855%
[4]
  inhibition at 5 µM: 0.309%
[5]
  inhibition at 5 µM: 1.4%

## COc1ccc2c(c1OC)C(=O)OC2C1c2cc3c(cc2CCN1C)OCO3 (single isomer, unassigned; (+)) [(+)-Hydrastine]
[6]
  inhibition at 5 µM: 2.51%
[7]
  inhibition at 5 µM: 0.711%
[8]
  mean (LOPAC_screen_w_protease): 1.61

## CC[N+](C)(CC)CC(=O)Nc1c(C)cccc1C.[Cl-] [Lidocaine N-methyl hydrochloride]
LOPAC1280 primary screen with protease, 5 µM compound, mean of the two replicates
  mean (LOPAC_screen_w_protease): 2.035
[9]
  Replicate_1 (LOPAC_screen_w_protease): 4.235
[10]
  Replicate_2 (LOPAC_screen_w_protease): -0.1654

## CN(C)C(=O)C(CCN1CCC(O)(c2ccc(Cl)cc2)CC1)(c1ccccc1)c1ccccc1 [Loperamide hydrochloride]
[11]
  inhibition at 5 µM: 2.22%
[12]
  inhibition at 5 µM: 4.2%
[13]
  inhibition at 5 µM: 0.237%

## C[C@H]1C[C@H]2[C@@H]3CCC4=CC(=O)C=C[C@]4(C)[C@@]3(Cl)[C@@H](O)C[C@]2(C)[C@@]1(O)C(=O)CO [Beclomethasone]
[14]
  mean: -0.1197
[15]
  Replicate_1: -0.1957
[16]
  Replicate_2: -0.04382

## NC(CCCP(=O)(O)O)C(=O)O (racemic) [(±)-2-Amino-5-phosphonopentanoic acid]
[8]
  mean (LOPAC_screen_w_protease): 1.558
[9]
  Replicate_1 (LOPAC_screen_w_protease): 1.59
[10]
  Replicate_2 (LOPAC_screen_w_protease): 1.526

## Cl.c1ccc(CN2CCC3(CCCc4ccccc43)CC2)cc1 [L-687,384 hydrochloride]
Sheet LOPAC_screen_w_protease, LOPAC1280 primary screen at 5 µM, with protease, mean of the two replicates
  mean: 0.6815
Sheet LOPAC_screen_w_protease, LOPAC1280 primary screen at 5 µM, with protease, replicate 1
  Replicate_1: 0.6204
Sheet LOPAC_screen_w_protease, LOPAC1280 primary screen at 5 µM, with protease, replicate 2
  Replicate_2: 0.7425

## Oc1c2ccccc2c2c3c(cccc13)N=N2 [SP600125]
Sheet LOPAC_screen_w_protease, LOPAC1280 primary screen at 5 µM, with protease, mean of two replicates, read-out: mean
  inhibition at 5 µM: -1.9%
[4]
  inhibition at 5 µM: 0.641%
[5]
  inhibition at 5 µM: -4.45%

## NNC(=O)c1ccc(O)cc1 [4-Hydroxybenzhydrazide]
Sheet LOPAC_screen_w_protease, primary screen with protease, compound at 5 µM, mean of two replicates
  mean: 2.583
Sheet LOPAC_screen_w_protease, primary screen with protease, compound at 5 µM, replicate 1
  Replicate_1: 1.695
Sheet LOPAC_screen_w_protease, primary screen with protease, compound at 5 µM, replicate 2
  Replicate_2: 3.47

## C#CCn1c(=O)c2c(ncn2C)n(C)c1=O [3,7-Dimethyl-I-propargylxanthine]
Sheet LOPAC_screen_w_protease, primary screen with protease, mean of two replicates
  mean: 2.439
Sheet LOPAC_screen_w_protease, primary screen with protease, replicate 1
  Replicate_1: 3.614
Sheet LOPAC_screen_w_protease, primary screen with protease, replicate 2
  Replicate_2: 1.263

## O=C(O)c1cc2cc(F)ccc2[nH]1 [5-Fluoroindole-2-carboxylic acid]
[1]
  inhibition at 5 µM: -0.381%
[2]
  inhibition at 5 µM: 0.54%
[3]
  inhibition at 5 µM: -1.3%

## C1CCc2nnnn2CC1 [Pentylenetetrazole]
[6]
  inhibition at 5 µM: 0.452%
[7]
  inhibition at 5 µM: 2.75%
[8]
  mean (LOPAC_screen_w_protease): 1.601

## CC(C)Oc1cccnc1N(C)C1CCN(Cc2ccccc2)CC1.O=C(O)/C=C\C(=O)O [U-101958 maleate]
[14]
  mean: 0.02682
[15]
  Replicate_1: 1.919
[16]
  Replicate_2: -1.865

## CC(CN(C)C)CN1c2ccccc2CCc2ccccc21 (stereo not drawn) [Trimipramine maleate]
[11]
  inhibition at 5 µM: 2.36%
[12]
  inhibition at 5 µM: 3.17%
[13]
  inhibition at 5 µM: 1.55%

## CSc1ccc2c(c1)N(CCC1CCCCN1C)c1ccccc1S2 (stereo not drawn) [Thioridazine hydrochloride]
read-out: Replicate_1
  inhibition at 5 µM: 0.0861%
read-out: Replicate_2
  inhibition at 5 µM: 0.816%
read-out: mean
  inhibition at 5 µM: 0.451%

## Cc1ccc(S(=O)(=O)NC(=O)NN2CCCCCC2)cc1 [Tolazamide]
[1]
  inhibition at 5 µM: -0.908%
[2]
  inhibition at 5 µM: -0.0393%
[3]
  inhibition at 5 µM: -1.78%
